Measurements reported in patent US6784309B2, “Method for the purification of N-[N-(3,3-dimethylbutyl)-L-α-aspartyl]-L-phenylalanine 1-methyl ester” (The Nutrasweet Company, priority 1999, dated 2004).

Key:
[1] = solubility compared to neotame; assay type: physicochemical; details: relative to neotame; for solubility compared to neotame: crystallization context
[2] = relative to sucrose; cited from earlier work

Compound	solubility compared to neotame [1]	other results
CC(C)(C)CCN[C@@H](CC(=O)O)C(=O)N[C@@H](Cc1ccccc1)C(=O)O [demethylated α-neotame, N-[N-(3,3-dimethylbutyl)-L-α-aspartyl]-L-phenylalanine]	–	solubility in water compared to neotame ([1]; water): more soluble in water
COC(=O)[C@H](Cc1ccccc1)NC(=O)[C@H](CC(=O)O)N(CCC(C)(C)C)CCC(C)(C)C [dialkylated aspartame, N,N-di(3,3-dimethylbutyl)-L-aspartyl-L-phenylalanine methyl ester]	very similar solubilities	–
COC(=O)[C@H](Cc1ccccc1)N1C(=O)C(CC(=O)O)N(CCC(C)(C)C)C1CC(C)(C)C (stereo partly drawn) [dialkylated imidazolidinone, α-methyl hydrogen-3-(3,3-dimethylbutyl)-2-L-(2,2-dimethylpropyl)-5-oxo-α-L-(phenylmethyl)-1,4(L)-imidazolidine diacetate]	very similar solubilities	–
COC(=O)C[C@H](NCCC(C)(C)C)C(=O)NC(Cc1ccccc1)C(=O)OC (stereo partly drawn) [methyl ester of α-neotame, methyl ester of N-[N-(3,3-dimethylbutyl)-L-α-aspartyl]-L-phenylalanine 1-methyl ester]	very similar solubilities	–
COC(=O)C(Cc1ccccc1)NC(=O)C(CC(=O)O)NCCC(C)(C)C [neotame, N-[N-(3,3-dimethylbutyl)-L-α-aspartyl]-L-phenylalanine 1-methyl ester]	–	sweetness potency (sweeter than sucrose) [2]: about 8000 X
